# Measured values taken from patent US9540391B2, “Isomannide derivatives as inhibitors of soluble epoxide hydrolase” (SANOFI, priority 2013, dated 2017).
# Counter-ions that a name gives are not always drawn.
# Target: T1, recombinant sEH (Homo sapiens, UniProt P34913)
# T1 construct: made in house; host or cells: Sf9 insect cells
# T1 sequence (P34913 1-555): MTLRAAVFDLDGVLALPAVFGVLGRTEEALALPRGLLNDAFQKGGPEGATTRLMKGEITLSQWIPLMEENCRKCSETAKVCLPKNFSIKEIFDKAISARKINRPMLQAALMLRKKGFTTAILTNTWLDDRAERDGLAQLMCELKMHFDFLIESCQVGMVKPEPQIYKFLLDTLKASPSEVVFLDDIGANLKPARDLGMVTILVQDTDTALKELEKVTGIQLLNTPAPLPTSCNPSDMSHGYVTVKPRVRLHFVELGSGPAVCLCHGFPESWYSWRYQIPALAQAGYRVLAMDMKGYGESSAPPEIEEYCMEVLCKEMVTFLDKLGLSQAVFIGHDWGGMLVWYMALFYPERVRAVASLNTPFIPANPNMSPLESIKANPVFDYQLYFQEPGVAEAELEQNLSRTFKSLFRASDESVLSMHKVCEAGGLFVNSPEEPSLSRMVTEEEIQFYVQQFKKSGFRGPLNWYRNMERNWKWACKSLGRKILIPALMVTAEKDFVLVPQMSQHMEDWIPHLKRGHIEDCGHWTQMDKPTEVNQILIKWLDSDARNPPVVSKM
# Assay: biochemical screening assay for inhibition of soluble epoxide hydrolase (fluorometric, Phome substrate)
# Method in brief: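 Human sEH from Sf9 cells (2 nM final) was pre-incubated 15 min at 30 °C with compound (0.0001–10 μM), then reacted 60 min at 30 °C with 5 μM Phome in 25 mM Hepes/0.01% albumin. Fluorescence of released 6-methoxy-2-naphthaldehyde was read before substrate and at end; IC50 from % inhibition.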
row,IC50,SMILES
1,0.039 µM,"O=C(NCCc1ccccc1)N[C@H]1CO[C@@H]2[C@@H](CCc3ccsc3)CO[C@@H]21 [Example 373, 1-Phenethyl-3-[(3S,3aR,6S,6aR)-6-(2-thiophen-3-yl-ethyl)-hexahydro-furo[3,2-b]furan-3-yl]-urea]"
2,0.235 µM,"O=C(Nc1ccc(OC(F)(F)F)cc1)N[C@H]1CO[C@@H]2[C@@H](CCc3ccsc3)CO[C@@H]21 [Example 374, 1-[(3S,3aR,6S,6aR)-6-(2-Thiophen-3-yl-ethyl)-hexahydro-furo[3,2-b]furan-3-yl]-3-(4-trifluoromethoxy-phenyl)-urea]"
3,0.017 µM,"O=C(Nc1cccc(C(F)(F)F)c1)N[C@H]1CO[C@@H]2[C@@H](CCc3ccsc3)CO[C@@H]21 [Example 375, 1-[(3S,3aR,6S,6aR)-6-(2-Thiophen-3-yl-ethyl)-hexahydro-furo[3,2-b]furan-3-yl]-3-(3-trifluoromethyl-phenyl)-urea]"
4,0.026 µM,"CCOC(=O)CC[C@H]1CO[C@H]2[C@@H]1OC[C@@H]2NC(=O)NC1CCCCC1 [Example 376, 3-[(3S,3aR,6S,6aR)-6-(3-Cyclohexyl-ureido)-hexahydro-furo[3,2-b]furan-3-yl]-propionic acid ethyl ester]"
5,2.94 µM,"O=C(O)CC[C@H]1CO[C@H]2[C@@H]1OC[C@@H]2NC(=O)NC1CCCCC1 [Example 377, 3-[(3S,3aR,6S,6aR)-6-(3-cyclohexyl-ureido)-hexahydro-furo[3,2-b]furan-3-yl]-propionic acid]"
6,0.024 µM,"N#C[C@H]1CO[C@H]2[C@@H]1OC[C@@H]2NC(=O)Nc1ccc(OC(F)(F)F)cc1 [Example 378, 1-((3S,3aR,6S,6aR)-6-cyano-hexahydro-furo[3,2-b]furan-3-yl)-3-(4-trifluoromethoxy-phenyl)-urea]"
7,0.304 µM,CCCCOc1ccc(NC(=O)NC2COC3C(C#N)COC23)cc1 (centres unmarked) [Example 380]
8,0.108 µM,Cc1cc(C)cc(NC(=O)NC2COC3C(C#N)COC23)c1 (centres unmarked) [Example 381]
9,0.339 µM,N#CC1COC2C(NC(=O)Nc3ccc(OCc4ccccc4)cc3)COC12 (centres unmarked) [Example 382]
10,0.694 µM,Cc1cccc(NC(=O)NC2COC3C(C#N)COC23)c1 (centres unmarked) [Example 383]
11,0.061 µM,N#CC1COC2C(NC(=O)Nc3ccc(Cl)c(Cl)c3)COC12 (centres unmarked) [Example 384]

# Further lines, the compound ahead of its results:
row,SMILES,IC50
1,"O=C(NC1CCCCC1)N[C@H]1CO[C@@H]2[C@@H](CCc3ccccc3)CO[C@@H]21 [Example 349, 1-Cyclohexyl-3-((3S,3aR,6S,6aR)-6-phenethyl-hexahydro-furo[3,2-b]furan-3-yl)-urea]",0.037 µM
2,"O=C(NC1CCCCC1)N[C@H]1CO[C@@H]2[C@@H](CCc3ccccn3)CO[C@@H]21 [Example 350, 1-Cyclohexyl-3-[(3S,3aR,6S,6aR)-6-(2-pyridin-2-yl-ethyl)-hexahydro-furo[3,2-b]furan-3-yl]-urea; trifluoroacetate]",0.022 µM
3,"CCCCOc1ccc(NC(=O)NC2COC3C(CCc4ccccc4)COC23)cc1 [Example 351, 1-(4-Butoxy-phenyl)-3-[(3S,3aR,6R)-6-((S)-phenethyl)-hexahydro-furo[3,2-b]furan-3-yl]-urea]",0.161 µM
4,"COc1cc(NC(=O)N[C@H]2CO[C@H]3[C@H](CCc4ccccc4)CO[C@@H]32)cc(OC)c1 [Example 352, 1-(3,5-Dimethoxy-phenyl)-3-[(3S,3aR,6R)-6-((S)-phenethyl)-hexa-hydro-furo[3,2-b]furan-3-yl]-urea]",0.149 µM
5,"Cc1cc(C)cc(NC(=O)N[C@H]2CO[C@H]3[C@H](CCc4ccccc4)CO[C@@H]32)c1 [Example 353, 1-(3,5-Dimethyl-phenyl)-3-[(3S,3aR,6R)-6-((S)-phenethyl)-hexa-hydro-furo[3,2-b]furan-3-yl]-urea]",0.017 µM
6,"O=C(Nc1ccccc1)NC1COC2C(CCc3ccccc3)COC12 [Example 354, 1-[(3S,3aR,6R)-6-((S)-Phenethyl)-hexa-hydro-furo[3,2-b]furan-3-yl]-3-phenyl-urea]",0.127 µM
7,"O=C(Nc1ccc(OCc2ccccc2)cc1)NC1COC2C(CCc3ccccc3)COC12 [Example 355, 1-(4-Benzyloxy-phenyl)-3-[(3S,3aR,6R)-6-((S)-phenethyl)-hexahydro-furo[3,2-b]furan-3-yl]-urea]",0.08 µM
8,"O=C(NCc1ccc(F)cc1)NC1COC2C(CCc3ccccc3)COC12 [Example 356, 1-(4-Fluoro-benzyl)-3-[(3S,3aR,6R)-6-((S)-phenethyl)-hexahydro-furo[3,2-b]furan-3-yl]-urea]",0.14 µM
9,"Cc1cccc(NC(=O)NC2COC3C(CCc4ccccc4)COC23)c1 [Example 357, 1-[(3S,3aR,6R)-6-((S)-Phenethyl)-hexahydro-furo[3,2-b]furan-3-yl]-3-m-tolyl-urea]",0.084 µM
10,"O=C(Nc1ccc(Cl)c(Cl)c1)NC1COC2C(CCc3ccccc3)COC12 [Example 358, 1-(3,4-Dichloro-phenyl)-3-[(3S,3aR,6R)-6-((S)-phenethyl)-hexahydro-furo[3,2-b]furan-3-yl]-urea]",0.022 µM
11,"Cc1cccc(CNC(=O)NC2COC3C(CCc4ccccc4)COC23)c1 [Example 359, 1-(3-Methyl-benzyl)-3-[(3S,3aR,6R)-6-((S)-phenethyl)-hexahydro-furo[3,2-b]furan-3-yl]-urea]",0.111 µM
12,"O=C(Nc1ccc(F)cc1)NC1COC2C(CCc3ccccc3)COC12 [Example 360, 1-(4-Fluoro-phenyl)-3-[(3S,3aR,6R)-6-((S)-phenethyl)-hexahydro-furo[3,2-b]furan-3-yl]-urea]",0.081 µM
13,"COc1cc(NC(=O)NC2COC3C(CCc4ccsc4)COC23)cc(OC)c1 [Example 361, 1-(3,5-Dimethoxy-phenyl)-3-[(3S,3aR,-6R)-6-((S)-2-thiophen-3-yl-ethyl)-hexahydro-furo[3,2-b]furan-3-yl]-urea]",0.039 µM
14,"Cc1cc(C)cc(NC(=O)NC2COC3C(CCc4ccsc4)COC23)c1 [Example 362, 1-(3,5-Dimethyl-phenyl)-3-[(3S,3aR,6R)-6-((S)-2-thiophen-3-yl-ethyl)-hexahydro-furo[3,2-b]furan-3-yl]-urea]",0.009 µM
15,"O=C(Nc1ccccc1)NC1COC2C(CCc3ccsc3)COC12 [Example 363, 1-Phenyl-3-[(3S,3aR,6R)-6-((S)-2-thiophen-3-yl-ethyl)-hexahydro-furo[3,2-b]furan-3-yl]-urea]",0.025 µM
16,"O=C(NCc1ccc(F)cc1)NC1COC2C(CCc3ccsc3)COC12 [Example 364, 1-(4-Fluoro-benzyl)-3-[(3S,3aR,6R)-6-((S)-2-thiophen-3-yl-ethyl)-hexa-hydro-furo[3,2-b]furan-3-yl]-urea]",0.029 µM
17,"Cc1cccc(CNC(=O)NC2COC3C(CCc4ccsc4)COC23)c1 [Example 365, 1-(3-Methyl-benzyl)-3-[(3S,3aR,6R)-6-((S)-2-thiophen-3-yl-ethyl)-hexa-hydro-furo[3,2-b]furan-3-yl]-urea]",0.145 µM
18,"O=C(Nc1ccc(F)cc1)NC1COC2C(CCc3ccsc3)COC12 [Example 366, 1-(4-Fluoro-phenyl)-3-[(3S,3aR,6R)-6-((S)-2-thiophen-3-yl-ethyl)-hexa-hydro-furo[3,2-b]furan-3-yl]-urea]",0.009 µM
19,"O=C(Nc1ccc2c(c1)CCC2)N[C@H]1CO[C@@H]2[C@@H](CCc3ccsc3)CO[C@@H]21 [Example 367, 1-Indan-5-yl-3-[(3S,3aR,6S,6aR)-6-(2-thiophen-3-yl-ethyl)-hexahydro-furo[3,2-b]furan-3-yl]-urea]",0.012 µM
20,"O=C(Nc1cccc(C(F)(F)F)c1)N[C@H]1CO[C@@H]2[C@@H](CCc3ccccc3)CO[C@@H]21 [Example 368, 1-((3S,3aR,6S,6aR)-6-Phenethyl-hexahydro-furo[3,2-b]furan-3-yl)-3-(3-trifluoromethyl-phenyl)-urea]",0.068 µM
21,"O=C(Nc1ccc2c(c1)OCCO2)N[C@H]1CO[C@@H]2[C@@H](CCc3ccccc3)CO[C@@H]21 [Example 369, 1-(2,3-Dihydro-benzo[1,4]dioxin-6-yl)-3-((3S,3aR,6S,6aR)-6-phenethyl-hexahydro-furo[3,2-b]furan-3-yl)-urea]",0.022 µM
22,"O=C(NCCc1cccs1)N[C@H]1CO[C@@H]2[C@@H](CCc3ccccc3)CO[C@@H]21 [Example 370, 1-((3S,3aR,6S,6aR)-6-Phenethyl-hexahydro-furo[3,2-b]furan-3-yl)-3-(2-thiophen-2-yl-ethyl)-urea]",0.043 µM
23,"O=C(NCCc1ccccc1)N[C@H]1CO[C@@H]2[C@@H](CCc3ccccc3)CO[C@@H]21 [Example 371, 1-Phenethyl-3-((3S,3aR,6S,6aR)-6-phenethyl-hexahydro-furo[3,2-b]furan-3-yl)-urea]",0.024 µM
24,"O=C(Nc1ccc(OC(F)(F)F)cc1)N[C@H]1CO[C@@H]2[C@@H](CCc3ccccc3)CO[C@@H]21 [Example 372, 1-((3S,3aR,6S,6aR)-6-Phenethyl-hexahydro-furo[3,2-b]furan-3-yl)-3-(4-trifluoromethoxy-phenyl)-urea]",0.011 µM
